According to the CheMixHub drug solubility set:

Experiment: xn = mol fraction of the nth substance listed, in the solute-free solvent

Oc1ccc(Cl)c2cccnc12 + CCOCCO + CCO
solubility (g/100 g solution)
Settings	278.15 K	283.15 K	288.15 K	293.15 K	298.15 K	303.15 K	308.15 K	313.15 K	318.15 K	323.15 K
x2 = 0.1134	1.08	1.36	1.64	1.98	2.41	2.88	3.44	4.07	4.85	5.76
x2 = 0.2542	1.61	1.9	2.21	2.69	3.17	3.76	4.43	5.22	6.15	7.04
x2 = 0.434	2.17	2.57	2.99	3.57	4.14	4.77	5.59	6.57	7.64	8.85
x2 = 0.6716	2.81	3.34	3.83	4.5	5.16	6.07	6.97	8.03	9.21	10.5

Nc1cncc(Cl)n1 + CN(C)C=O + O
solubility (g/100 g solution)
Settings	278.15 K	283.15 K	288.15 K	293.15 K	298.15 K	303.15 K	308.15 K	313.15 K	318.15 K	323.15 K
x2 = 0.02666	–	–	–	–	–	–	–	–	–	0.136
x2 = 0.05806	–	–	–	–	–	–	–	–	–	0.386
x2 = 0.09556	0.711	0.836	0.963	1.12	1.29	1.5	1.71	1.95	2.21	2.52
x2 = 0.1412	1	1.18	1.36	1.59	1.83	2.13	2.43	2.78	3.15	3.58
x2 = 0.1978	1.13	1.35	1.6	1.86	2.18	2.55	2.94	3.38	3.84	4.38
x2 = 0.27	1.26	1.53	1.81	2.13	2.52	2.94	3.38	3.91	4.51	5.2
x2 = 0.3652	1.39	1.68	2.03	2.4	2.83	3.31	3.89	4.51	5.18	5.97
x2 = 0.4965	1.5	1.85	2.23	2.67	3.17	3.69	4.34	5.06	5.84	6.7
x2 = 0.6893	1.59	1.97	2.39	2.87	3.39	3.97	4.66	5.5	6.38	7.36

O=C(O)c1cc([N+](=O)[O-])ccc1O + CN(C)C=O + O
solubility (g/100 g solution)
Settings	278.15 K	283.15 K	288.15 K	293.15 K	298.15 K	303.15 K	308.15 K	313.15 K	318.15 K	323.15 K
x2 = 0.02666	0.182	0.224	0.277	0.352	0.437	0.534	0.645	0.775	0.924	1.1
x2 = 0.05806	0.538	0.682	0.832	1	1.26	1.54	1.85	2.17	2.56	3.01
x2 = 0.09556	1.2	1.45	1.81	2.17	2.65	3.12	3.74	4.38	5.16	6.11
x2 = 0.1412	2.33	2.71	3.27	3.93	4.66	5.53	6.45	7.43	8.54	9.8
x2 = 0.1978	3.78	4.51	5.41	6.42	7.5	8.84	10.3	11.9	13.5	15.4
x2 = 0.27	6.74	7.37	8.61	10.2	11.7	13.4	15.2	17.2	19.3	21.5
x2 = 0.3652	10.9	11.7	12.9	14.8	16.9	19	21.2	23.5	26.2	29.4
x2 = 0.4965	14.7	15.3	16.7	19.3	21.5	24	26.1	29.3	32.3	35.7
x2 = 0.6893	16.7	17.7	19.4	21.5	23.8	26.6	29	31.8	35.4	38.8
